# Experiments:
# Type in all cases: binding
# [1] = system: human monoclonal antibody CR57
# [2] = system: human monoclonal antibody CRJB
# [3] = system: human monoclonal antibody CR57; remark: listed apart in the source
# [4] = system: human monoclonal antibody CRJA
# [5] = system: human monoclonal antibody CRJB; remark: listed apart in the source
# [6] = system: human monoclonal antibody CR57; remark: listed apart in the source
# [7] = system: human monoclonal antibody CRJA; remark: listed apart in the source
Sequence,Binding of CRJB to linear peptide (PEPSCAN-ELISA signal) [2],Binding of CR57 to linear peptide (PEPSCAN-ELISA signal) [3],Binding of CRJA to linear peptide (PEPSCAN-ELISA signal) [4],Binding of CRJB (10 μg/ml) to looped/cyclic peptide (PEPSCAN-ELISA) [5],Binding of CR57 (10 μg/ml) to looped/cyclic peptide (PEPSCAN-ELISA) [6],Binding of CRJA (10 μg/ml) to looped/cyclic peptide (PEPSCAN-ELISA) [7],Binding of CRJB (10 μg/ml) to looped/cyclic peptide (PEPSCAN-ELISA signal) [5],Binding of CR57 (10 μg/ml) to looped/cyclic peptide (PEPSCAN-ELISA signal) [6],Binding of CRJA (10 μg/ml) to looped/cyclic peptide (PEPSCAN-ELISA signal) [7],also measured
KLCGVLGLRLMD,–,–,–,–,–,–,–,–,–,"binding of CR57 to 12-, 10- and 8-mer peptides [1]: bound"
CKLKLCGVLGLR,–,–,–,–,–,–,–,–,–,"binding of CR57 to 12-, 10- and 8-mer peptides [1]: bound"
ACKLKLCGVLGL,–,–,–,–,–,–,–,–,–,"binding of CR57 to 12-, 10- and 8-mer peptides [1]: bound"
KLKLCGVLGL,–,–,–,–,–,–,–,–,–,"binding of CR57 to 12-, 10- and 8-mer peptides [1]: bound"
LKLCGVLGLR,–,–,–,–,–,–,–,–,–,"binding of CR57 to 12-, 10- and 8-mer peptides [1]: bound"
VIPLVHPLADPSTVF,141,69,92,92,77,84,–,–,–,–
LADPSTVFKDGDEAE,–,–,–,–,–,–,–,–,–,Binding of human monoclonal antibody CRJB to linear peptide (PEPSCAN-ELISA signal) [2]: 116; Binding of human monoclonal antibody CR57 to linear peptide (PEPSCAN-ELISA signal) [3]: 68; Binding of human monoclonal antibody CRJA to linear peptide (PEPSCAN-ELISA signal) [4]: 86; Binding of CRJB to looped/cyclic peptide (PEPSCAN-ELISA signal) [5]: 90; Binding of CR57 to looped/cyclic peptide (PEPSCAN-ELISA signal) [6]: 134; Binding of CRJA to looped/cyclic peptide (PEPSCAN-ELISA signal) [7]: 90
NLHDFRSDEIEHLVV,113,83,97,62,90,86,–,–,–,–
RSLHSRVFPSGKCSG,141,87,125,–,–,–,93,102,123,–
TSNETKWCPPDQLVN,111,97,88,57,134,96,–,–,–,–
ASKGSETCGFVDERG,108,97,106,94,96,120,–,–,–,–
KDGDEAEDFVEVHLP,–,–,–,–,–,–,–,–,–,Binding of human monoclonal antibody CRJB to linear peptide (PEPSCAN-ELISA signal) [2]: 93; Binding of human monoclonal antibody CR57 to linear peptide (PEPSCAN-ELISA signal) [3]: 72; Binding of human monoclonal antibody CRJA to linear peptide (PEPSCAN-ELISA signal) [4]: 62; Binding of CRJB to looped/cyclic peptide (PEPSCAN-ELISA signal) [5]: 71; Binding of CR57 to looped/cyclic peptide (PEPSCAN-ELISA signal) [6]: 71; Binding of CRJA to looped/cyclic peptide (PEPSCAN-ELISA signal) [7]: 42
GVLGLRLMDGTWVAM,148,89,107,83,118,104,–,–,–,–
EDFVEVHLPDVHNQV,–,–,–,–,–,–,–,–,–,Binding of human monoclonal antibody CRJB to linear peptide (PEPSCAN-ELISA signal) [2]: 141; Binding of human monoclonal antibody CR57 to linear peptide (PEPSCAN-ELISA signal) [3]: 90; Binding of human monoclonal antibody CRJA to linear peptide (PEPSCAN-ELISA signal) [4]: 114; Binding of CRJB to looped/cyclic peptide (PEPSCAN-ELISA signal) [5]: 89; Binding of CR57 to looped/cyclic peptide (PEPSCAN-ELISA signal) [6]: 117; Binding of CRJA to looped/cyclic peptide (PEPSCAN-ELISA signal) [7]: 104
GCTNLSGFSYMELKV,114,55,72,–,–,–,55,63,55,–
RPTPDACRAAYNWKM,101,77,123,–,–,–,51,76,96,–
VIISPSVADLDPYDR,98,59,47,–,–,–,82,90,100,–
SSTYCSTNHDYTIWM,107,76,71,–,–,–,66,96,90,–
CPPDQLVNLHDFRSD,137,93,115,123,137,92,–,–,–,–
IPLVHPLADPSTVFK,156,96,130,107,99,106,–,–,–,–
TLMEADAHYKSVRTW,114,100,111,87,89,89,–,–,–,–
HLRKLVPGFGKAYTI,111,99,116,93,118,120,–,–,–,–
KTLMEADAHYKSVRT,98,91,102,97,125,92,–,–,–,–
LSCPNNLVVEDEGCT,117,69,90,–,–,–,74,72,97,–
GLRLMDGTWVAMQTS,138,104,108,99,120,100,–,–,–,–
GFSYMELKVGYILAI,111,65,91,–,–,–,57,77,71,–
HHLSCPNNLVVEDEG,76,56,72,–,–,–,58,66,96,–
RKHFRPTPDACRAAY,107,64,57,–,–,–,79,72,41,–

# Source: US20060263802A1 (priority 2003, published 2006)
